Series [1] deals with HepG2. Briefly: Phototoxicity against human HepG2 cells assessed as reduction in cell viability up to 100 uM irradiated with LED light at 1.7 J/cm'2 measured after 12 hrs by MTT assay. The class given is functional, cell-based. Background: Tetrazolium assays rely on reduction of a dye to a coloured formazan, in cell work by metabolically active cells.
Series [2] relates to HepG2. Briefly: Induction of intracellular ROS production in human HepG2 cells at 30 uM incubated for 10 hrs followed by DCF-DA addition for 20 mins in dark and irradiated with LED light at 1.7 J/cm'2 by fluorescence assay. The class given is functional, cell-based.
Series [3] has as its system HepG2. The series can be described thus: Phototoxicity against human HepG2 cells assessed as reduction in cell viability preincubated overnight followed by irradiation with LED light at 1.7 J/cm'2 for 10 mins measured post overnight incubation by MTT assay. The following applies: HepG2, light or radiation study. The class given is functional, cell-based.
A short description of series [4]: Drug uptake in human HepG2 cells at 30 uM measured up to 10 hrs by fluorescence assay. The class given is ADME, cell-based. The following applies: hepg2, 10 h.
A short description of series [5]: Dark toxicity against human HepG2 cells assessed as reduction in cell viability incubated overnight by MTT assay. The class given is cell-based.
The nature of series [6]: Induction of singlet oxygen production in Tris-Hcl buffer after irradiation with LED light at 1.7 J/cm'2 at 100 uM at pH 7.4 by ATTA-Eu3+ probe based fluorescence microscopy.

Active and inactive are the calls of the source. No cut-off for these calls is given here.

Broadly, the IC50 is the concentration that gives 50% inhibition. As for `C=Cc1c(C)c2cc3nc(c(CC(=O)O)c4[nH]c(cc5nc(cc1[nH]2)C(C)=C5CC)c(C)c4C(=O)NCCNC(=O)CCC(=O)O[C@@H]1O[C@@H]2O[C@@]4(C)CC[C@H]5[C@H](C)CC[C@@H]([C@H]1C)[C@@]25OO4)[C@@H](CCC(=O)O)[C@@H]3C`, the outcome (with HepG2 [1]; in the series on HepG2 [2]; in series [6]) was Active. Further, the IC50 in the series on HepG2 [3] amounted to 1.8 µM; in series [5], 36.6 µM. In series [4], the Drug uptake result is “Active”.

Turning to `C=Cc1c(C)c2cc3nc(c(CC(=O)O)c4[nH]c(cc5nc(cc1[nH]2)C(C)=C5CC)c(C)c4C(=O)O)[C@@H](CCC(=O)NCCNC(=O)CCC(=O)O[C@@H]1O[C@@H]2O[C@@]4(C)CC[C@H]5[C@H](C)CC[C@@H]([C@H]1C)[C@@]25OO4)[C@@H]3C`, the result (with HepG2 [1]; in the series on HepG2 [2]; in series [6]) was Active. In addition, the IC50 came to 1.5 µM in the series on HepG2 [3] and 29.1 µM in series [5]. The Drug uptake entry in series [4] was “Active”.

For `C=Cc1c(C)c2cc3nc(c(CC(=O)NCCNC(=O)CCC(=O)O[C@@H]4O[C@@H]5O[C@@]6(C)CC[C@H]7[C@H](C)CC[C@@H]([C@H]4C)[C@@]57OO6)c4[nH]c(cc5nc(cc1[nH]2)C(C)=C5CC)c(C)c4C(=O)NCCNC(=O)CCC(=O)O[C@@H]1O[C@@H]2O[C@@]4(C)CC[C@H]5[C@H](C)CC[C@@H]([C@H]1C)[C@@]25OO4)[C@@H](CCC(=O)NCCNC(=O)CCC(=O)O[C@@H]1O[C@@H]2O[C@@]4(C)CC[C@H]5[C@H](C)CC[C@@H]([C@H]1C)[C@@]25OO4)[C@@H]3C`, the result in the series with HepG2 [1] and in the series with HepG2 [2] was Active. The half-maximal inhibitory concentration (IC50) turned out to be 0.8 µM in the series with HepG2 [3] and 12.9 µM in series [5]. Moreover, the Drug uptake result in series [4] is on record as “Active”. The outcome in series [6] was inactive.

For `C[C@H]1[C@H](OC(=O)CCC(=O)O)O[C@@H]2O[C@@]3(C)CC[C@H]4[C@H](C)CC[C@@H]1[C@@]24OO3` [ARTESUNATE], the result with HepG2 [1] and with HepG2 [2] was Active. Also, the results for the IC50 (with HepG2 [3]; in series [5]) were 7.7 µM and 6.5 µM, respectively.

As for `C=Cc1c(C)c2cc3nc(c(CC(=O)NCCNC(=O)CCC(=O)O[C@@H]4O[C@@H]5O[C@@]6(C)CC[C@H]7[C@H](C)CC[C@@H]([C@H]4C)[C@@]57OO6)c4[nH]c(cc5nc(cc1[nH]2)C(C)=C5CC)c(C)c4C(=O)O)[C@@H](CCC(=O)O)[C@@H]3C`, the outcome (in the series with HepG2 [1]; with HepG2 [2]; in series [6]) was Active. Also, the results for the half-maximal inhibitory concentration (IC50) (in the series with HepG2 [3]; in series [5]) were 2.4 µM and 57 µM, respectively. Moreover, the Drug uptake entry in series [4] is listed as “Active”.

In the case of `C=CC1=C(C)/C2=C/C3=NC(=C(/CC(=O)NCCNC(=O)OC(C)(C)C)c4[nH]c(c(C)c4C(=O)O)/C=C4\N=C(CC1N2)C(C)=C4CC)/[C@@H](CCC(=O)O)[C@@H]3C` (stereo not given in full), the result with HepG2 [2] was Active. Besides, the Drug uptake result in series [4] is listed as “Active”.

These data come from ChEMBL document CHEMBL4043215, “Synergistic antiproliferative effect of chemo-phototherapy: Synthesis and photodynamic activity evaluation of novel Chlorin e6-artesunate conjugates as antiproliferative agents” (Bioorg Med Chem Lett, 2017).
